# Assay results: patent US20230382920A1, “SHMT Inhibitors” (The Trustees of Princeton University, priority 2020, published 2023)
# Counter-ions that a name gives are not always drawn.
# Key:
# [1] = Pharmacokinetics study of KDG-0271 in male CD1 mice (Example 4); format: in vivo; details: for F: bioavailability vs 1 mg/kg IV; for AUC(0-inf) / AUC(0-t) / Cmax / Tmax / half-life / concentration at 0.25 h / concentration at 0.5 h / concentration at 1 h / concentration at 2 h / concentration at 4 h / concentration at 8 h / MRT inf: mouse, plasma; for MRT inf: read-out: MRTInf_obs
# Procedure: A standard PK study of KDG-0271 was performed in male CD1 mice dosed with a single intravenous, oral or intraperitoneal dose of KDG-0271. The parameters of the PK study are described in Table 26. Dosing solutions were freshly made prior to use, and were in the form of a suspension. […] For IV and IP, after collection, plasma samples from the same time point were pooled, and the pooled samples were analyzed by LC/MS/MS.
# Sample preparation and analysis were conducted in accordance with the method described in Example 3.
# (§1) BLOQ=Below quantifiable limit of 1 ng/mL. PK parameters were estimated by non-compartmental model using WinNonlin 6.1. The PO bioavailability (F %) was calculated as following:
# (§2) AUClast-PO/AUCINF-PO>80%: F=(AUCINF-PO*DoseIV)/(mean AUCINF-IV*DosePO) AUClast-PO/AUCINF-PO≤80% or AUCINF was not available: F=(AUClast-PO*DoseIV)/(mean AUClast-IV*DosePO).
# (§3) The IP bioavailability (F %) was calculated as following:
# (§4) AUClast-IP/AUCINF-IP>80%: F=(AUCINF-IP*DoseIV)/(mean AUCINF-IV*DoseIP) AUClast-IP/AUCINF-IP≤80% or AUCINF was not available: F=(AUClast-IP*DoseIV)/(mean AUClast-IV*DoseIP).
# [2] = Pharmacokinetics study of KDG-0320-0A in male CD1 mice (Example 1); format: in vivo; details: for F: bioavailability vs 1 mg/kg IV; for MRT inf: read-out: MRTInf_obs
# Procedure: A standard pharmacokinetic (PK) study of KDG-0320-0A was performed in male CD1 mice dosed with a single oral, intravenous or intraperitoneal dose of KDG-0320-0A. The parameters of the PK study are described in Table 2. Dosing solutions were freshly made prior to use. […] For IV, PO and IP, after collection, plasma samples from the same time point were pooled, and the pooled samples were analyzed by LC/MS/MS.
# The desired serial concentrations of working solutions were achieved by diluting stock solution of analyte with 50% acetonitrile in water solution. 5 μL of working solutions (2, 4, 10, 20, 100, 200, 1000, 2000 ng/mL) were added to 10 μL of blank CD1 mouse plasma to achieve calibration standards of 1-1000 ng/mL (1, 2, 5, 10, 50, 100, 500, 1000 ng/mL) in a total volume of 15 μL. Four quality control (QC) samples at 2 ng/mL, 5 ng/mL, 50 ng/mL and 800 ng/mL for plasma were prepared independently of those used for the calibration curves. These QC samples were prepared on the day of analysis in the same way as calibration standards.
# 15 μL standards, 15 μL QC samples and 15 μL unknown samples from the blood sampling (10 μL plasma with 5 μL blank solution) were added to 200 μL of acetonitrile containing IS mixture for precipitating protein. Then, the samples were vortexed for 30 seconds. After centrifugation at 4 degrees Celsius, 4000 rpm for 15 minutes, the supernatant was diluted three times with water. 15 μL of diluted supernatant was injected into the LC/MS/MS system for quantitative analysis.
# as §1, §2, §3, §4
# [3] = 30 mg/kg IP, read-out: Concentration IP_Mean
# [4] = 50 mg/kg PO, read-out: Concentration PO_Mean
# [5] = single dose 1 mg/kg IV, 50 mg/kg PO or 30 mg/kg IP, entire experiment
# [6] = mouse, plasma, 1 mg/kg IV, read-out: Concentration IV_Mean
# [7] = mouse, plasma, 30 mg/kg IP, read-out: Concentration IP_Mean
# [8] = mouse, plasma, 50 mg/kg PO, read-out: Concentration PO_Mean
smiles,measurement,setting,value
"Cc1n[nH]c2c1C(c1cc(C#CC3CN(C(=O)OC(C)(C)C)C3)cc(CO)c1)(C(C)C)C(C#N)=C(N)O2 (stereo not drawn) [KDG-0271, tert-butyl 3-[2-(3-[6-amino-5-cyano-4-isopropyl-3-methyl-1H-pyrano[2,3-c]pyrazol-4-yl]-5-(hydroxymethyl)phenyl)ethynyl]azetidine-1-carboxylate]",AUC_%Extrap_obs,[1]; 30 mg/kg IP,2.65%
same,AUClast/D,[1]; 30 mg/kg IP,174 kg·ng·h/mL/mg
same,F,[1]; 30 mg/kg IP,179%
same,AUC_%Extrap_obs,[1]; 50 mg/kg PO,0.172%
same,AUClast/D,[1]; 50 mg/kg PO,38.1 kg·ng·h/mL/mg
same,F,[1]; 50 mg/kg PO,38.1%
same,AUC(0-inf),[1]; 30 mg/kg IP,5360 ng·h/mL
same,AUC(0-t),[1]; 30 mg/kg IP,5220 ng·h/mL
same,Cmax,[1]; 30 mg/kg IP,3170 ng/mL
same,Tmax,[1]; 30 mg/kg IP,0.25 h
same,half-life,[1]; 30 mg/kg IP,1.6 h
same,concentration at 0.25 h,[1]; [3],3170 ng/mL
same,concentration at 0.5 h,[1]; [3],2420 ng/mL
same,concentration at 1 h,[1]; [3],1580 ng/mL
same,concentration at 2 h,[1]; [3],841 ng/mL
same,concentration at 4 h,[1]; [3],317 ng/mL
same,concentration at 8 h,[1]; [3],61.4 ng/mL
same,MRT inf,[1]; 30 mg/kg IP,1.98 h
same,AUC(0-inf),[1]; 50 mg/kg PO,1910 ng·h/mL
same,AUC(0-t),[1]; 50 mg/kg PO,1900 ng·h/mL
same,Cmax,[1]; 50 mg/kg PO,872 ng/mL
same,Tmax,[1]; 50 mg/kg PO,0.5 h
same,half-life,[1]; 50 mg/kg PO,0.851 h
same,concentration at 0.25 h,[1]; [4],750 ng/mL
same,concentration at 0.5 h,[1]; [4],872 ng/mL
same,concentration at 1 h,[1]; [4],857 ng/mL
same,concentration at 2 h,[1]; [4],350 ng/mL
same,concentration at 4 h,[1]; [4],72 ng/mL
same,concentration at 8 h,[1]; [4],2.67 ng/mL
same,MRT inf,[1]; 50 mg/kg PO,1.49 h
same,clinical symptoms,[1]; [5],No abnormal clinical symptoms were observed
"Cc1n[nH]c2c1C(c1cc(C#C[C@H]3CC[C@H](NC(=O)OC(C)(C)C)CC3)cc(CO)c1)(C(C)C)C(C#N)=C(N)O2 (stereo partly drawn) [KDG-0320, tert-butyl N-[(1r,4r)-4-[2-(3-[6-amino-5-cyano-4-isopropyl-3-methyl-1H-pyrano[2,3-c]pyrazol-4-yl]-5-(hydroxymethyl)phenyl)ethynyl]cyclohexyl]carbamate hydrochloride]",AUC_%Extrap_obs,[2]; 1 mg/kg IV,2.88%
same,AUClast/D,[2]; 1 mg/kg IV,155 kg·ng·h/mL/mg
same,Cl_obs,[2]; 1 mg/kg IV,104 mL/min/kg
same,Vss_obs,[2]; 1 mg/kg IV,3.96 L/kg
same,AUC_%Extrap_obs,[2]; 30 mg/kg IP,1.41%
same,AUClast/D,[2]; 30 mg/kg IP,258 kg·ng·h/mL/mg
same,F,[2]; 30 mg/kg IP,164%
same,AUC_%Extrap_obs,[2]; 50 mg/kg PO,1.77%
same,AUClast/D,[2]; 50 mg/kg PO,32.5 kg·ng·h/mL/mg
same,F,[2]; 50 mg/kg PO,20.8%
same,AUC(0-inf),"[2]; mouse, plasma, 1 mg/kg IV",160 ng·h/mL
same,AUC(0-t),"[2]; mouse, plasma, 1 mg/kg IV",155 ng·h/mL
same,C0,"[2]; mouse, plasma, 1 mg/kg IV",575 ng/mL
same,half-life,"[2]; mouse, plasma, 1 mg/kg IV",1.04 h
same,concentration at 0.083 h,"[2]; mouse, plasma, 1 mg/kg IV, 0.083 h, read-out: Concentration IV_Mean",363 ng/mL
same,concentration at 0.25 h,[2]; [6],144 ng/mL
same,concentration at 0.5 h,[2]; [6],60.2 ng/mL
same,concentration at 1 h,[2]; [6],25.7 ng/mL
same,concentration at 2 h,[2]; [6],7.16 ng/mL
same,concentration at 4 h,[2]; [6],3.07 ng/mL
same,MRT inf,"[2]; mouse, plasma, 1 mg/kg IV",0.632 h
same,AUC(0-inf),"[2]; mouse, plasma, 30 mg/kg IP",7840 ng·h/mL
same,AUC(0-t),"[2]; mouse, plasma, 30 mg/kg IP",7730 ng·h/mL
same,Cmax,"[2]; mouse, plasma, 30 mg/kg IP",7460 ng/mL
same,Tmax,"[2]; mouse, plasma, 30 mg/kg IP",0.25 h
same,half-life,"[2]; mouse, plasma, 30 mg/kg IP",1.66 h
same,concentration at 0.25 h,[2]; [7],7460 ng/mL
same,concentration at 0.5 h,[2]; [7],5240 ng/mL
same,concentration at 1 h,[2]; [7],3060 ng/mL
same,concentration at 2 h,[2]; [7],589 ng/mL
same,concentration at 4 h,[2]; [7],211 ng/mL
same,concentration at 8 h,"[2]; mouse, plasma, 30 mg/kg IP, 8 h, read-out: Concentration IP_Mean",46.2 ng/mL
same,MRT inf,"[2]; mouse, plasma, 30 mg/kg IP",1.27 h
same,AUC(0-inf),"[2]; mouse, plasma, 50 mg/kg PO",1660 ng·h/mL
same,AUC(0-t),"[2]; mouse, plasma, 50 mg/kg PO",1630 ng·h/mL
same,Cmax,"[2]; mouse, plasma, 50 mg/kg PO",605 ng/mL
same,Tmax,"[2]; mouse, plasma, 50 mg/kg PO",1 h
same,half-life,"[2]; mouse, plasma, 50 mg/kg PO",1.28 h
same,concentration at 0.25 h,[2]; [8],117 ng/mL
same,concentration at 0.5 h,[2]; [8],315 ng/mL
same,concentration at 1 h,[2]; [8],605 ng/mL
same,concentration at 2 h,[2]; [8],411 ng/mL
same,concentration at 4 h,[2]; [8],126 ng/mL
same,concentration at 8 h,"[2]; mouse, plasma, 50 mg/kg PO, 8 h, read-out: Concentration PO_Mean",15.8 ng/mL
same,MRT inf,"[2]; mouse, plasma, 50 mg/kg PO",2.3 h
same,Concentration IV_Mean,"[2]; plasma, 1 mg/kg IV, 8 h",BLOQ
same,clinical symptoms,[2]; [5],No abnormal clinical symptoms were observed
